Compound: O=C(CCCCCCC(=O)Nc1ccccc1)NO [Vorinostat]
Assay: relative viability (nuclei count vs DMSO), 5 days (fraction); higher = more cells survive
In short: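 Nuclei counted with MetaXpress define viability as the ratio of treated to vehicle wells, given as a median across plates. The lung cancer cell lines were in 1536-well plates, pinned with five √10-spaced library-drug doses and imaged at 4× after 5 days and Hoechst staining. Plates passed with control CV below 25% and at least one doubling.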

PC-3 [JPC-3]
relative viability (0.253 µM): 1.12
relative viability (0.8 µM): 0.988
relative viability (1 µM, anchor plate): 0.921
relative viability (2.53 µM): 0.608
relative viability (8 µM): 0.312

NCI-H441
relative viability (0.253 µM): 1.13
relative viability (0.8 µM): 1.05
relative viability (1 µM, anchor plate): 0.773
relative viability (2.53 µM): 0.418
relative viability (8 µM): 0.18

NCI-H2342
relative viability (0.253 µM): 0.936
relative viability (0.8 µM): 1.02
relative viability (1 µM, anchor plate): 0.756
relative viability (2.53 µM): 0.756
relative viability (8 µM): 0.458

NCI-H358
relative viability (0.253 µM): 1.33
relative viability (0.8 µM): 1.05
relative viability (1 µM, anchor plate): 0.697
relative viability (2.53 µM): 0.255
relative viability (8 µM): 0.118

NCI-H1793
relative viability (0.253 µM): 1.37
relative viability (0.8 µM): 0.951
relative viability (1 µM, anchor plate): 0.821
relative viability (2.53 µM): 0.817
relative viability (8 µM): 0.29

SK-LU-1
relative viability (0.253 µM): 1.19
relative viability (0.8 µM): 0.924
relative viability (1 µM, anchor plate): 0.781
relative viability (2.53 µM): 0.668
relative viability (8 µM): 0.19

ChaGo-K-1
relative viability (0.253 µM): 1.09
relative viability (0.8 µM): 0.858
relative viability (1 µM, anchor plate): 0.759
relative viability (2.53 µM): 0.761
relative viability (8 µM): 0.343

NCI-H1563
relative viability (0.253 µM): 1.07
relative viability (0.8 µM): 0.856
relative viability (2.53 µM): 0.629
relative viability (8 µM): 0.513

NCI-H596
relative viability (0.253 µM): 1.03
relative viability (0.8 µM): 0.799
relative viability (1 µM, anchor plate): 0.621
relative viability (2.53 µM): 0.797
relative viability (8 µM): 0.311

NCI-H2023
relative viability (0.253 µM): 1.22
relative viability (0.8 µM): 0.771
relative viability (1 µM, anchor plate): 0.709
relative viability (2.53 µM): 0.209
relative viability (8 µM): 0.0744

NCI-H1437
relative viability (0.253 µM): 1.04
relative viability (0.8 µM): 0.831
relative viability (1 µM, anchor plate): 0.861
relative viability (2.53 µM): 0.421
relative viability (8 µM): 0.184

EKVX
relative viability (0.253 µM): 1.09
relative viability (0.8 µM): 1.01
relative viability (1 µM, anchor plate): 0.77
relative viability (2.53 µM): 0.688
relative viability (8 µM): 0.175

HCC-44
relative viability (0.253 µM): 0.995
relative viability (0.8 µM): 0.91
relative viability (1 µM, anchor plate): 1.09
relative viability (2.53 µM): 0.654
relative viability (8 µM): 0.161

NCI-H2405
relative viability (0.253 µM): 1.05
relative viability (0.8 µM): 1.17
relative viability (1 µM, anchor plate): 1.01
relative viability (2.53 µM): 0.57
relative viability (8 µM): 0.144

NCI-H1944
relative viability (0.253 µM): 0.927
relative viability (0.8 µM): 0.707
relative viability (1 µM, anchor plate): 0.57
relative viability (2.53 µM): 0.341
relative viability (8 µM): 0.21

NCI-H1734
relative viability (0.253 µM): 1.28
relative viability (0.8 µM): 0.982
relative viability (1 µM, anchor plate): 0.832
relative viability (2.53 µM): 0.688
relative viability (8 µM): 0.15

NCI-H322M
relative viability (0.253 µM): 1.17
relative viability (0.8 µM): 0.87
relative viability (1 µM, anchor plate): 0.915
relative viability (2.53 µM): 0.6
relative viability (8 µM): 0.385

NCI-H2085
relative viability (0.253 µM): 1.05
relative viability (0.8 µM): 0.939
relative viability (1 µM, anchor plate): 0.815
relative viability (2.53 µM): 0.714
relative viability (8 µM): 0.369

HOP-62
relative viability (0.253 µM): 1.2
relative viability (0.8 µM): 0.882
relative viability (1 µM, anchor plate): 0.679
relative viability (2.53 µM): 0.528
relative viability (8 µM): 0.113

SK-MES-1
relative viability (0.253 µM): 1.11
relative viability (0.8 µM): 1.02
relative viability (1 µM, anchor plate): 1.08
relative viability (2.53 µM): 0.555
relative viability (8 µM): 0.203

NCI-H2170
relative viability (0.253 µM): 1.08
relative viability (0.8 µM): 0.969
relative viability (1 µM, anchor plate): 0.847
relative viability (2.53 µM): 0.539
relative viability (8 µM): 0.158

HCC-78
relative viability (0.253 µM): 0.963
relative viability (0.8 µM): 0.674
relative viability (1 µM, anchor plate): 0.468
relative viability (2.53 µM): 0.3
relative viability (8 µM): 0.221

NCI-H1703
relative viability (0.253 µM): 1.41
relative viability (0.8 µM): 1.39
relative viability (2.53 µM): 1.03
relative viability (8 µM): 0.244

LCLC-97TM1
relative viability (0.253 µM): 0.979
relative viability (0.8 µM): 1.07
relative viability (1 µM, anchor plate): 0.711
relative viability (2.53 µM): 0.715
relative viability (8 µM): 0.1

IA-LM
relative viability (0.253 µM): 0.976
relative viability (0.8 µM): 0.723
relative viability (1 µM, anchor plate): 0.963
relative viability (2.53 µM): 0.349
relative viability (8 µM): 0.0685

UMC-11
relative viability (0.253 µM): 1.1
relative viability (0.8 µM): 0.617
relative viability (1 µM, anchor plate): 0.403
relative viability (2.53 µM): 0.201
relative viability (8 µM): 0.103

CAL-12T
relative viability (0.253 µM): 1.13
relative viability (0.8 µM): 1.09
relative viability (1 µM, anchor plate): 0.807
relative viability (2.53 µM): 0.537
relative viability (8 µM): 0.137

A-427
relative viability (0.253 µM): 1.15
relative viability (0.8 µM): 0.972
relative viability (1 µM, anchor plate): 0.862
relative viability (2.53 µM): 0.517
relative viability (8 µM): 0.176

NCI-H1755
relative viability (0.253 µM): 1.08
relative viability (0.8 µM): 1.01
relative viability (1 µM, anchor plate): 0.735
relative viability (2.53 µM): 0.566
relative viability (8 µM): 0.292

LXF-289
relative viability (0.253 µM): 1.1
relative viability (0.8 µM): 1.01
relative viability (1 µM, anchor plate): 0.791
relative viability (2.53 µM): 0.624
relative viability (8 µM): 0.195

NCI-H838
relative viability (0.253 µM): 1.15
relative viability (0.8 µM): 1.03
relative viability (1 µM, anchor plate): 0.763
relative viability (2.53 µM): 0.565
relative viability (8 µM): 0.191

NCI-H522
relative viability (0.253 µM): 1.1
relative viability (0.8 µM): 0.869
relative viability (1 µM, anchor plate): 0.962
relative viability (2.53 µM): 0.768
relative viability (8 µM): 0.299

NCI-H1666
relative viability (0.253 µM): 1.05
relative viability (0.8 µM): 0.955
relative viability (1 µM, anchor plate): 1.01
relative viability (2.53 µM): 0.514
relative viability (8 µM): 0.348

A549
relative viability (0.253 µM): 1.05
relative viability (0.8 µM): 0.848
relative viability (2.53 µM): 0.337
relative viability (8 µM): 0.0442

LC-2-ad
relative viability (0.253 µM): 0.989
relative viability (0.8 µM): 0.722
relative viability (1 µM, anchor plate): 0.691
relative viability (2.53 µM): 0.228
relative viability (8 µM): 0.155

LK-2
relative viability (0.253 µM): 1.18
relative viability (0.8 µM): 0.67
relative viability (1 µM, anchor plate): 0.309
relative viability (2.53 µM): 0.207
relative viability (8 µM): 0.0969

LOU-NH91
relative viability (0.253 µM): 1.09
relative viability (0.8 µM): 0.918
relative viability (1 µM, anchor plate): 0.94
relative viability (2.53 µM): 0.829
relative viability (8 µM): 0.423

NCI-H1792
relative viability (0.253 µM): 0.965
relative viability (0.8 µM): 0.762
relative viability (2.53 µM): 0.371
relative viability (8 µM): 0.108
